Experimental data: US20060074109A1, “Use of inhibitors of 24-hydroxylase in the treatment of cancer” (Sapphire Therapeutics, Inc., priority 2004, published 2006)

Key:
[1] = target: T1, 24OHase in OVCAR-3 cells (Homo sapiens, UniProt Q07973); assay: Metabolic analysis of 25(OH)D3: 24,25(OH)2D3 production; type: cell-based; details: for amount of 24,25(OH)2D3 relative to 0 hr: first experiment
T1 construct: Also, 24OHase is expressed in OVCAR-3 cells; endogenous in cells; host or cells: OVCAR-3
T1 sequence (Q07973 36-514): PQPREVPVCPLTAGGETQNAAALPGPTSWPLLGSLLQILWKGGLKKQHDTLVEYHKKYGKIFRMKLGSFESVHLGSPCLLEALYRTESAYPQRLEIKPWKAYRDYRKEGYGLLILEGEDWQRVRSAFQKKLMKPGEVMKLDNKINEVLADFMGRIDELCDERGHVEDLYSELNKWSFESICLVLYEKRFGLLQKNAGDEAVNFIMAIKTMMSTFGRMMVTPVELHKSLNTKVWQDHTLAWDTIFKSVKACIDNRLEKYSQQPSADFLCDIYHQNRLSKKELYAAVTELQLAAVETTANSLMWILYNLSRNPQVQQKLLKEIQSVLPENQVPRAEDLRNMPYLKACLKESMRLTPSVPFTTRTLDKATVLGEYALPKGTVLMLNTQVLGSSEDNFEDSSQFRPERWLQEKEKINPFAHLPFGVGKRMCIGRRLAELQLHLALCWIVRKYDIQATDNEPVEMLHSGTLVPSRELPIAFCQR
Experimental: OVCAR-3 cells (1.5×10^6 cell/flask) were plated on T25 culture flasks. One day after plating, cells were treated with 500 nM 25(OH)D3 in RPMI 1640 medium supplemented with 10% FBS, 10 μg/ml insulin, 0.25% glucose and antibiotics (100 IU/ml penicillin, 100 μg/ml streptomycin). After 0, 3 or 24 hr, the medium was collected and the cell monolayer was extracted with 1 ml methanol. After 15 min incubation at room temperature, the methanol was transformed into the same tube than the sample medium. The samples for the measurement of the 25(OH)D3 metabolites were purified using the acetonitrile-C 18 Sep-Pak (Waters Corporation, Milford, Mass.) procedure (Turnbull, H., Trafford, D. J., Makin, H. L., “A Rapid and Simple Method for the Measurement of Plasma 25-hydroxyvitamin D2 and 25-hydroxyvitamin D3 Using Sep-Pak C 18 Cartridges and a Single High-Performance Liquid Chromatographic Step,” Clin. Chim. Acta., 120:65-76 (1982)) followed by separation of the metabolites by a high-performance liquid chromatography. […] The second measurement was done following the same procedure except dextran charcoal-treated FBS was used instead of FBS, 24OHase inhibitor (200 nM VID400) was used with the 500 nM 25(OH)D3 treatment, and the samples were collected only after 0 and 24 hr.

[2] = tested on: UT-OC-5 cells; assay: Cell growth assay, crystal violet, 11 days; type: cell-based, human; details: 200 nM VID 400 combined with hormones, especially 1,25(OH)2D3 or EB 1089, 11 days
Experimental: (§1) The human ovarian adenocarcinoma cell line, OVCAR-3 (ATCC, Manassas, Va.) was maintained, as recommended by the supplier, in RPMI 1640 medium (Sigma Aldrich, St. Louis, Mo.) supplemented with 10% FBS, 10 μg/ml insulin, 0.25% glucose and antibiotics (100 IU/ml penicillin, 100 μg/ml streptomycin). Human ovarian adenocarcinoma cell lines UT-OC-1, UT-OC-2, UT-OC-3, UT-OC-4, UT-OC-5 (Grenman, S., Engblom, P., Rantanen, V., Klemi, P. and Isola, J., “Cytogenetic Characterization of Five New Ovarian Carcinoma Cell Lines,” Acta Obstet. Gynecol. Scand., 76:83 (1997)) and SK-OV-3 and a human keratinocyte cell line HaCaT were grown in DMEM (Sigma Aldrich) with 10% FBS and antibiotics (100 IU/ml penicillin, 100 μg/ml streptomycin), and monkey kidney COS cells were maintained in DMEM/F12 (Sigma Aldrich) with 5% FBS. All cell lines were kept at 37° C. in a humidified 95% air/5% CO2 incubator.
(§2) When OVCAR-3 cells were on the logarithmic growth phase (70% confluent) the growth assay was started. For cell growth assay, 2,000 cell/200 μl/well were plated on 96-well culture plates. […] Ethanol was used as a vehicle, and it was also included in the control. The medium containing ethanol vehicle and/or hormones were changed to a fresh one every third day. Cell growth samples were taken 0, 1, 3, 5, 7, 9 and 11 days after the treatment.
(§3) Relative cell numbers were quantified as described previously (Kueng W, Silber E, Eppenberger U. Quantification of cells cultured on 96-well plates. Anal. Biochem., 182:16-9 (1989)). Cells were fixed on the bottom of the wells by addition of 10 μl of 11% glutaraldehyde solution in 0.1% phosphate buffer to 100 μl of medium. The plate was shaken 500 cycles/min for 15 min, washed 3 times by submersion in de-ionised water and air-dried. Fixed cells were stained with 0.1% solution of crystal violet dissolved in de-ionised water. After 20 min incubation, excess dye was removed by carefully washing with de-ionised water. The plate was air-dried prior to a bound dye solubilisation in 100 μl of 10% acetic acid. Relative cell number was given as absorbance units by measuring the optical density (590 nm) from each well using Victor 1420 multilabel counter (Wallac, Turku, Finland). Six determinations were used to calculate the mean optical density ±SD in each concentration at each time point. The absorbance value of day 0 (an overnight culture of 2,000 cells/well) was set as 0 by subtracting it from each value obtained from adjacent time-point measurements (days 1-11), and based on these values growth curves were created. Experiments were repeated 3-5 times. Day 11 was used to compare the effect of hormone treatments and 24OHase inhibitor. Statistical analyses were done using Student's t-test.
(§4) Cell growth samples were obtained after 11 days treatment.

[3] = tested on: UT-OC-2 cells; assay: Cell growth assay, crystal violet, 11 days; type: cell-based, human; details: 200 nM VID 400 combined with vitamin D or retinoid compounds
Experimental: as §1, §2, §3, §4

[4] = tested on: UT-OC-3 cells; assay: Cell growth assay, crystal violet, 11 days; type: cell-based, human; details: 200 nM VID 400 combined with vitamin D or retinoid compounds
Experimental: as §1, §2, §3, §4

[5] = tested on: SK-OV-3 cells; assay: Cell growth assay, crystal violet, 11 days; type: cell-based, human
Experimental: as §1, §2, §3, §4

[6] = tested on: UT-OC-4 cells; assay: Cell growth assay, crystal violet, 11 days; type: cell-based, human
Experimental: as §1, §2, §3, §4

[7] = tested on: UT-OC-1 cells; assay: Cell growth assay, crystal violet, 11 days; type: cell-based, human
Experimental: as §1, §2, §3, §4

Row | Structure (SMILES) | 24,25(OH)2D3 ([1]; 500 nM 25(OH)D3, 0 hr, experiment I (FBS)) [nM] | 24,25(OH)2D3 ([1]; 500 nM 25(OH)D3, 0 hr, experiment II (dextran charcoal-treated FBS)) [nM] | 24,25(OH)2D3 ([1]; 500 nM 25(OH)D3, 3 hr, experiment I (FBS)) [nM] | amount of 24,25(OH)2D3 relative to 0 hr ([1]; 500 nM 25(OH)D3, 3 hr) [times] | 24,25(OH)2D3 ([1]; 500 nM 25(OH)D3, 24 hr, experiment I (FBS)) [nM] | 24,25(OH)2D3 ([1]; 500 nM 25(OH)D3, 24 hr, experiment II (dextran charcoal-treated FBS)) [nM] | amount of 24,25(OH)2D3 relative to 0 hr ([1]; 500 nM 25(OH)D3, 24 hr) [fold] | concentration of 24,25(OH)2D3 relative to 0 hr ([1]; 500 nM 25(OH)D3, 24 hr, second experiment) [times] | effect on cell growth [2] | effect on cell growth [3] | effect on cell growth [4] | effect on growth inhibition ([5]; 200 nM VID 400 combined with 9-CRA) | effect on cell growth ([5]; 200 nM VID 400 combined with vitamin D compounds) | effect on cell growth ([6]; 200 nM VID 400 combined with 100 nM 1,25(OH)2D3 or EB 1089, 11 days) | effect on growth inhibition ([6]; 200 nM VID 400 combined with 10 μM ATRA or 9-CRA, 11 days) | inhibition of cell growth ([7]; 200 nM VID 400 combined with 100 nM EB 1089, 11 days) | effect on growth inhibition ([7]; 200 nM VID 400 combined with 10 μM 9-CRA, 11 days) | augmentation of growth inhibition ([7]; 200 nM VID 400 combined with 10 μM ATRA, 11 days) | production of 24,25(OH)2D3 compared to 500 nM 25(OH)D3 treatment alone ([1]; 200 nM VID400 + 500 nM 25(OH)D3, 24 hr, second experiment) | 24,25(OH)2D3 ([1]; 500 nM 25(OH)D3 + 200 nM VID400, 24 hr, experiment II (dextran charcoal-treated FBS)) [nM]
1 | C=C1CC[C@H](O)C/C1=C/C=C1\CCC[C@]2(C)[C@@H]([C@H](C)CCCC(C)(C)O)CC[C@@H]12 [25(OH)D3, monohydroxyvitamin D3] | 6 | 1 | 24 | 4 | 112 | 27 | 18 | 27 |  |  |  |  |  |  |  |  |  |  |  | 
2 | O=C(NC[C@@H](c1ccccc1)n1ccnc1)c1ccc(-c2ccc(Cl)cc2)cc1 [VID400, 2-(R)-4′-Chlorobiphenyl-4-carboxylic acid (2-imidazol-1-yl-2-phenyl-ethyl)-amide] |  |  |  |  |  |  |  |  | had an inhibitory effect on growth | growth inhibition was seen | growth inhibition was seen | potentiated this effect | slightly inhibitory effect on growth | cell growth was inhibited | potentiated this effect | did so | augmented the growth inhibition | not seen | reduced to one-third | 8
